# Literature values in patent publication US20240285563A1, “USE OF (S)-3-AMINO-4-(DIFLUOROMETHYLENYL) CYCLOPENT-1-ENE-1-CARBOXYLIC ACID IN THE TREATMENT OF RHEUMATOID ARTHRITIS” (Ovid Therapeutics Inc., priority 2023, published 2024).
# Tests used:
# [1] = test system: aspartate aminotransferase (Asp-AT)
# [2] = target: T1, OAT (Homo sapiens, UniProt P04181)
# T1 sequence (P04181 36-439 limits assumed): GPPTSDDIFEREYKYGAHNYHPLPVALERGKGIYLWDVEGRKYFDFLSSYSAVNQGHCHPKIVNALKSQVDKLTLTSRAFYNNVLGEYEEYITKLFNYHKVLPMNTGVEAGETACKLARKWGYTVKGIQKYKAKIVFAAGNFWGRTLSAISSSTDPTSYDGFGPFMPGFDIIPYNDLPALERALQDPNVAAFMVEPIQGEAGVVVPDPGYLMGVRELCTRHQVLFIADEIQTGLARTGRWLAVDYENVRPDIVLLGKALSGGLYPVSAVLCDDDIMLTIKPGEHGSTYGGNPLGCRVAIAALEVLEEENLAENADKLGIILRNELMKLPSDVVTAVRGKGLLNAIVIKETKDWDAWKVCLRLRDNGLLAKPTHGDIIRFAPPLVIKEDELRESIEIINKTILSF
# [3] = test system: alanine aminotransferase (Ala-AT)
IC50 ([1]; very weak reversible inhibitor) [mM],times more efficient an inactivator of OAT than CPP-115 ([2]; ratio of kinact/KI versus CPP-115) [times],IC50 ([3]; very weak reversible inhibitor) [mM],SMILES,inactivation or inhibition of off-target enzyme [1],Ki [2] [µM],inactivation or inhibition of off-target enzyme [3]
–,–,–,"N[C@H]1C[C@@H](C(=O)O)CC1=C(F)F [CPP-115, (1S,3S)-3-amino+difluoromethylenyl-1-cyclopentanoic acid, reference compound]",not to inactivate or inhibit,116,not to inactivate or inhibit
> 4,9.0,> 4,"N[C@H]1C=C(C(=O)O)CC1=C(F)F [OV329, (S)-3-amino-4-(difluoromethylenyl)cyclopent-1-ene-1-carboxylic acid]",–,3.3,–
